For 18 molecules, EC50 results are on record in patent publication US11617777B2, “Cytotoxic and anti-mitotic compounds, and methods of using the same” (ZYMEWORKS BC INC., priority 2013, dated 2023).

The term EC50 denotes the concentration giving half of the maximal effect.

The test system of one experiment is Jurkat cells. The experiment is described as follows: Cytotoxicity of compounds, CellTiter-Glo. The format is cell-based, Human. The following applies: Homo sapiens, Jurkat, Table 3; Cytotoxicity of Compounds on Jurkat Cells; read-out: EC50. From the text: Cell lines used: Human T-cell leukemia cell line Jurkat (ATCC: TIB-152); HCC1954 (ATCC: CRL. 2338); Human Pancreatic cells lines: AsPC-1 (ATCC: CRL-1682), BxPC-3 (ATCC: CRL.1687), HPAF-II (ATCC: CRL.1997), MiaPaCa2 (ATCC: CRL.1420), PANC-1 (ATCC: CRL.1469), Capan-1 (ATCC: HTB-79), Capan-2 (ATCC: HTB-80) and the Human gastric carcinoma cell line NCI-N87 (ATCC: CRL. 5822); AML-193 (ATCC: CRL.9589), CCRF-CEM (ATCC: CCL-119), DU145 (ATCC: HTB-81), PC-3 (ATCC: CRL.1435), A-431 (ATCC: CRL.1555), HT-29 (ATCC: HTB-38), A-172 (ATCC: CRL.1620), NCI-H358 (ATCC: CRL.5807), A549 (ATCC: CCL-185), Colo-205 (ATCC: CCL-222), MDA-MB-231 (ATCC: HTB-26), OVCAR-3 (ATCC: HTB-161), OV-90 (ATCC: CRL.11732), OE19 (Sigma: 96071721), RT 112/84 (Sigma: 85061106).
On the day prior to adding compounds, HCC1954 AsPC-1, BxPC-3, HPAF-II, MiaPaCa2, PANC-1, Capan-1, Capan-2 and NCI-N87 cells were added to opaque-walled 96-well tissue culture-treated microtiter plates using complete growth medium at a density of 2500 cells/100 microlitre (uL) of medium. These adherant cell lines cells were incubated for one night at 37° C./5% CO2 to allow the cells to attach to the microtiter plate surface. On the day that compounds were added, Jurkat cells are added to separate 96-well microtiter plates at 2500 cells/100 uL using the same growth medium as HCC1954. Compound were first serially diluted using dimethyl sulfoxide, and then the prepared dilutions are added to complete growth medium at five-times the final concentration—compounds were then titrated 1:3, eight steps. A control with no compound (growth medium alone) was included on each microtiter plate in sextuplicate. The prepared compounds titrations were added (twenty-five uL/well) in triplicate. The cells and compound titrations were incubated at 37° C./5% CO2 for three nights. After the incubation, cell viability is measured using CellTiter-Glo® reagent by adding thirty uL of prepared CellTiter-Glo® to each assay well. The assay is incubated for at least twenty minutes in the dark prior to measuring emitted luminescence using a microplate luminometer (500 ms integration time). The collected relative luminescence units (RLU) are converted to % cytotoxicity using the Growth medium alone control mentioned above (% Cytotoxicity=1−[Well RLU/average medium alone control RLU]).
GraphPad Prism was used for generation of EC50 values using three parameter non-linear regression curve fitting.
On the technique in general: In ATP-based viability assays light output follows the ATP content of the culture.
Consider `CN[C@H](C(=O)N[C@H](C(=O)N(C)[C@H](/C=C(\C)C(=O)NS(=O)(=O)C1CCCCC1)C(C)C)C(C)(C)C)C(C)(C)c1ccccc1` [Compound 44, (S,E)-N-(cyclohexylsulfonyl)-2,5-dimethyl-4-((S)—N,3,3-trimethyl-2-((S)-3-methyl-2-(methylamino)-3-phenylbutanamido)butanamido)hex-2-enamide], for which the EC50 worked out at 114 pM.

In the case of `CN[C@H](C(=O)N[C@H](C(=O)N(C)[C@H](/C=C(\C)C(=O)NS(=O)(=O)Cc1cccnc1)C(C)C)C(C)(C)C)C(C)(C)c1ccccc1` [Compound 45, (S,E)-2,5-dimethyl-N-(pyridin-3-ylmethylsulfonyl)-4-((S)—N,3,3-trimethyl-2-((S)-3-methyl-2-(methylamino)-3-phenylbutanamido)butanamido)hex-2-enamide], the concentration giving a half-maximal response (EC50) turned out to be 869 pM.

In the case of `CN[C@H](C(=O)N[C@H](C(=O)N(C)[C@H](/C=C(\C)C(=O)NS(=O)(=O)c1cccc(NC(=O)C(F)(F)F)c1)C(C)C)C(C)(C)C)C(C)(C)c1ccccc1` [Compound 47, (S,E)-2,5-dimethyl-N-(3-(2,2,2-trifluoroacetamido)phenylsulfonyl)-4-((S)—N,3,3-trimethyl-2-((S)-3-methyl-2-(methylamino)-3-phenylbutanamido)butanamido)hex-2-enamide], the half-maximal effective concentration (EC50) is 261 pM.

For `CN[C@H](C(=O)N[C@H](C(=O)N(C)[C@H](/C=C(\C)C(=O)NS(=O)(=O)c1cccc(N)c1)C(C)C)C(C)(C)C)C(C)(C)c1ccccc1` [Compound 48, (S,E)-N-(3-aminophenylsulfonyl)-2,5-dimethyl-4-((S)—N,3,3-trimethyl-2-((S)-3-methyl-2-(methylamino)-3-phenylbutanamido)butanamido)hex-2-enamide], the EC50 was determined as 208 pM.

As for `CN[C@H](C(=O)N[C@H](C(=O)N(C)[C@H](/C=C(\C)C(=O)NS(=O)(=O)c1cccnc1)C(C)C)C(C)(C)C)C(C)(C)c1ccccc1` [Compound 49, (S,E)-2,5-dimethyl-N-(pyridin-3-ylsulfonyl)-4-((S)—N,3,3-trimethyl-2-((S)-3-methyl-2-(methylamino)-3-phenylbutanamido)butanamido)hex-2-enamide], the EC50 was 2500 pM.

Regarding `CN[C@H](C(=O)N[C@H](C(=O)N(C)[C@H](/C=C(\C)C(=O)NS(=O)(=O)c1cccs1)C(C)C)C(C)(C)C)C(C)(C)c1ccccc1` [Compound 50, (S,E)-2,5-dimethyl-N-(thiophen-2-ylsulfonyl)-4-((S)—N,3,3-trimethyl-2-((S)-3-methyl-2-(methylamino)-3-phenylbutanamido)butanamido)hex-2-enamide], the EC50 is 171 pM.

Regarding `CN[C@H](C(=O)N[C@H](C(=O)N(C)[C@H](/C=C(\C)C(=O)NS(=O)(=O)c1ccc(O)cc1)C(C)C)C(C)(C)C)C(C)(C)c1ccccc1` [Compound 51, (S,E)-N-(4-hydroxyphenylsulfonyl)-2,5-dimethyl-4-((S)—N,3,3-trimethyl-2-((S)-3-methyl-2-(methylamino)-3-phenylbutanamido)butanamido)hex-2-enamide], the concentration giving a half-maximal response (EC50) worked out at 247 pM.

For the molecule `CN[C@H](C(=O)N[C@H](C(=O)N(C)[C@H](/C=C(\C)C(=O)NS(=O)(=O)Cc1ccc(C2(NC(=O)C(F)(F)F)CC2)cc1)C(C)C)C(C)(C)C)C(C)(C)c1ccccc1` [Compound 57, (S,E)-2,5-dimethyl-N-(4-(1-(2,2,2-trifluoroacetamido)cyclopropyl)benzylsulfonyl)-4-((S)—N,3,3-trimethyl-2-((S)-3-methyl-2-(methylamino)-3-phenylbutanamido)butanamido)hex-2-enamide], the concentration for a half-maximal effect (EC50) came out at 566 pM.

Turning to `CN[C@H](C(=O)N[C@H](C(=O)N(C)[C@H](/C=C(\C)C(=O)NS(=O)(=O)Cc1ccc(C2(N)CC2)cc1)C(C)C)C(C)(C)C)C(C)(C)c1ccccc1` [Compound 58, (S,E)-N-(4-(1-aminocyclopropyl)benzylsulfonyl)-2,5-dimethyl-4-((S)—N,3,3-trimethyl-2-((S)-3-methyl-2-(methylamino)-3-phenylbutanamido)butanamido) hex-2-enamide], the concentration giving a half-maximal response (EC50) worked out at 816 pM.

Staying with this experiment, now noted: Homo sapiens, Jurkat, Table 6; Compound Cytotoxicity on Jurkat; read-out: EC50.
Take `CN[C@H](C(=O)N[C@H](C(=O)N(C)[C@H](/C=C(\C)C(=O)NS(=O)(=O)C1CCCCC1)C(C)C)C(C)(C)C)C(C)(C)c1ccccc1` [Compound 44, (S,E)-N-(cyclohexylsulfonyl)-2,5-dimethyl-4-((S)—N,3,3-trimethyl-2-((S)-3-methyl-2-(methylamino)-3-phenylbutanamido)butanamido)hex-2-enamide]: the EC50 stood at 1480 pM.

On to `CN[C@H](C(=O)N[C@H](C(=O)N(C)[C@H](/C=C(\C)C(=O)NS(=O)(=O)Cc1cccnc1)C(C)C)C(C)(C)C)C(C)(C)c1ccccc1` [Compound 45, (S,E)-2,5-dimethyl-N-(pyridin-3-ylmethylsulfonyl)-4-((S)—N,3,3-trimethyl-2-((S)-3-methyl-2-(methylamino)-3-phenylbutanamido)butanamido)hex-2-enamide], for which the EC50 is 373 pM.

For `CN[C@H](C(=O)N[C@H](C(=O)N(C)[C@H](/C=C(\C)C(=O)NS(=O)(=O)c1ccc(C2(NC(=O)C(F)(F)F)CC2)cc1)C(C)C)C(C)(C)C)C(C)(C)c1ccccc1` [Compound 62, (S,E)-2,5-dimethyl-N-(4-(1-(2,2,2-trifluoroacetamido)cyclopropyl)phenylsulfonyl)-4-((S)—N,3,3-trimethyl-2-((S)-3-methyl-2-(methylamino)-3-phenylbutanamido)butanamido)hex-2-enamide], the EC50 is 1200 pM.

Turning to `CN[C@H](C(=O)N[C@H](C(=O)N(C)[C@H](/C=C(\C)C(=O)NS(=O)(=O)Cc1ccccc1C)C(C)C)C(C)(C)C)C(C)(C)c1ccccc1` [Compound 64, (S,E)-2,5-dimethyl-N-(2-methylbenzylsulfonyl)-4-((S)—N,3,3-trimethyl-2-((S)-3-methyl-2-(methylamino)-3-phenylbutanamido)butanamido)hex-2-enamide], the EC50 came out at 138 pM.

For the molecule `CN[C@H](C(=O)N[C@H](C(=O)N(C)[C@H](/C=C(\C)C(=O)NS(=O)(=O)Cc1ccc(Cl)cc1)C(C)C)C(C)(C)C)C(C)(C)c1ccccc1` [Compound 66, (S,E)-N-(4-chlorobenzylsulfonyl)-2,5-dimethyl-4-((S)—N,3,3-trimethyl-2-((S)-3-methyl-2-(methylamino)-3-phenylbutanamido)butanamido)hex-2-enamide], the half-maximal effective concentration (EC50) worked out at 145 pM.

`CN[C@H](C(=O)N[C@H](C(=O)N(C)[C@H](/C=C(\C)C(=O)NS(=O)(=O)CCc1ccccc1)C(C)C)C(C)(C)C)C(C)(C)c1ccccc1` [Compound 67, (S,E)-2,5-dimethyl-N-(phenethylsulfonyl)-4-((S)—N,3,3-trimethyl-2-((S)-3-methyl-2-(methylamino)-3-phenylbutanamido)butanamido)hex-2-enamide]: the concentration giving a half-maximal response (EC50) came to 562 pM.

Take `CN[C@H](C(=O)N[C@H](C(=O)N(C)[C@H](/C=C(\C)C(=O)NS(=O)(=O)Cc1ccc(Br)cc1)C(C)C)C(C)(C)C)C(C)(C)c1ccccc1` [Compound 68, (S,E)-N-(4-bromobenzylsulfonyl)-2,5-dimethyl-4-((S)—N,3,3-trimethyl-2-((S)-3-methyl-2-(methylamino)-3-phenylbutanamido)butanamido)hex-2-enamide]: the concentration giving a half-maximal response (EC50) came to 337 pM.

Take `CN[C@H](C(=O)N[C@H](C(=O)N(C)[C@H](/C=C(\C)C(=O)NS(=O)(=O)Cc1ccc(C#N)cc1)C(C)C)C(C)(C)C)C(C)(C)c1ccccc1` [Compound 69, (S,E)-N-(4-cyanobenzylsulfonyl)-2,5-dimethyl-4-((S)—N,3,3-trimethyl-2-((S)-3-methyl-2-(methylamino)-3-phenylbutanamido)butanamido)hex-2-enamide]: the concentration for a half-maximal effect (EC50) worked out at 1560 pM.

`CN[C@H](C(=O)N[C@H](C(=O)N(C)[C@H](/C=C(\C)C(=O)NS(=O)(=O)Cc1cccc([N+](=O)[O-])c1)C(C)C)C(C)(C)C)C(C)(C)c1ccccc1` [Compound 70, (S,E)-2,5-dimethyl-N-(3-nitrobenzylsulfonyl)-4-((S)—N,3,3-trimethyl-2-((S)-3-methyl-2-(methylamino)-3-phenylbutanamido)butanamido)hex-2-enamide]: the EC50 came to 856 pM.

Consider `CN[C@H](C(=O)N[C@H](C(=O)N(C)[C@H](/C=C(\C)C(=O)NS(=O)(=O)Cc1ccc(C(C)(C)C)cc1)C(C)C)C(C)(C)C)C(C)(C)c1ccccc1` [Compound 71, (S,E)-N-(4-tert-butylbenzylsulfonyl)-2,5-dimethyl-4-((S)—N,3,3-trimethyl-2-((S)-3-methyl-2-(methylamino)-3-phenylbutanamido)butanamido)hex-2-enamide], for which the concentration giving a half-maximal response (EC50) stood at 1020 pM.

Staying with this experiment, now noted: Table 6; Compound Cytotoxicity on Jurkat; read-out: EC50.
`CN[C@H](C(=O)N[C@H](C(=O)N(C)[C@H](/C=C(\C)C(=O)NS(=O)(=O)Cc1ccccc1[N+](=O)[O-])C(C)C)C(C)(C)C)C(C)(C)c1ccccc1` [Compound 72, (S,E)-2,5-dimethyl-N-(2-nitrobenzylsulfonyl)-4-((S)—N,3,3-trimethyl-2-((S)-3-methyl-2-(methylamino)-3-phenylbutanamido)butanamido)hex-2-enamide]: the EC50 was found to be 531 pM.
